Data on one compound can be found in ChEMBL document CHEMBL1139647, “Synthesis and biological characterization of [3H] (2-amino-4,5,6,7-tetrahydrobenzo[b]thiophen-3-yl)-(4-chlorophenyl)-methanone, the first radiolabelled adenosine A1 allosteric enhancer” (Bioorg Med Chem Lett, 2006).

The target in experiment [1] is T1, Adenosine receptor A1 (Homo sapiens) (UniProt P30542).
T1 sequence (whole entry): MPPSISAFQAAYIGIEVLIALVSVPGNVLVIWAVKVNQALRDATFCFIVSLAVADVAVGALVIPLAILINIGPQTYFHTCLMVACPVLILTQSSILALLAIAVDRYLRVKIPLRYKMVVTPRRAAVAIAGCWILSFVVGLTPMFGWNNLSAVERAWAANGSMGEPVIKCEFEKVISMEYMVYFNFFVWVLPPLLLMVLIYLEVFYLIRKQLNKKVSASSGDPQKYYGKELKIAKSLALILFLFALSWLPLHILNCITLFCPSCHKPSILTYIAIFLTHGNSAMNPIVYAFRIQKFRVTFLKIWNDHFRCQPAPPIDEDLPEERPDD
Put plainly: Activity measured by decrease in cAMP content employing CHO cells expressing human A1 receptor at 10 uM. More on the design: scale not given: the % may be the effect or the level left. In kind it is functional, cell-based.

Experiment [2] addresses T1, Adenosine receptor A1 (Homo sapiens). The experiment in a line: Increase in agonist-specific binding of [3H]CCPA to human adenosine A1 receptor in CHO membranes. In kind it is functional, cell membranes.
Experiment [3] addresses T2, Adenosine receptor A1 (Rattus norvegicus) (UniProt P25099).
T2 sequence (whole entry): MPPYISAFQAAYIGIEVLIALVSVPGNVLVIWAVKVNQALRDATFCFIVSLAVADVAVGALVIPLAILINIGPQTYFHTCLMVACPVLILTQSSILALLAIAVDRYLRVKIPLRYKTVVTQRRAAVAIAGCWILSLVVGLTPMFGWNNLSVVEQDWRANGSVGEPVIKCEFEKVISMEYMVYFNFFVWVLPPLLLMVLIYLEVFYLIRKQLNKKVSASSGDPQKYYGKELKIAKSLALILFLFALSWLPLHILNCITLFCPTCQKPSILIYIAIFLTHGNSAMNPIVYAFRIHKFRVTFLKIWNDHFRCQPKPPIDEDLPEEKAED
Put plainly: Increase in agonist-specific binding of [3H]CCPA to adenosine A1 receptor in rat cortex. In kind it is functional.

Experiment [4] has as its target T1, Adenosine receptor A1 (Homo sapiens). The experiment in a line: Increase in agonist-specific binding of [3H]CCPA to human adenosine A1 receptor in human brain membranes. In kind it is functional, cell membranes. The following applies: Membrane.
Experiment [5] shares this target. The experiment in a line: Increase in Bmax for binding of [3H]CCPA to human adenosine A1 receptor in CHO membranes. In kind it is cell membranes.
The target in experiment [6] is T2, Adenosine receptor A1 (Rattus norvegicus). The experiment in a line: Increase in Bmax for binding of [3H]CCPA to adenosine A1 receptor in rat cortex.
Experiment [7] deals with T1, Adenosine receptor A1 (Homo sapiens). Put plainly: Increase in Bmax for binding of [3H]CCPA to human adenosine A1 receptor in human brain membrane. The format is cell membranes.
In experiment [8] the target is Adenosine receptor A2a (Homo sapiens) (UniProt P29274). The experiment in a line: Increase in binding of [3H]CGS 21680 to human adenosine A2A receptor in CHO membranes. The format is cell membranes.
In experiment [9] the target is T3, Adenosine receptor A3 (Homo sapiens) (UniProt P0DMS8).
T3 sequence (whole entry): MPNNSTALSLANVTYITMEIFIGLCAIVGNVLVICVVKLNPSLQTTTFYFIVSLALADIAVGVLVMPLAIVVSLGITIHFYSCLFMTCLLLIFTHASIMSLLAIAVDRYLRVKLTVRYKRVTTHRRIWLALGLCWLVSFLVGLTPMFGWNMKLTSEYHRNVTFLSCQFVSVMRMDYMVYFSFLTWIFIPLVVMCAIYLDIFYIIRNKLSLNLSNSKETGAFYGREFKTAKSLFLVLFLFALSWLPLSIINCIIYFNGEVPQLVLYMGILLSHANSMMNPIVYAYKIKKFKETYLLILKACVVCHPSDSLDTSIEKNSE
The experiment in a line: Increase in binding of [125I]AB-MECA to human adenosine A3 receptor in CHO membranes. The format is cell membranes.

For experiment [10], the target named is T1, Adenosine receptor A1 (Homo sapiens). Put plainly: Binding density to adenosine A1 receptor in CHO membranes. In kind it is cell membranes. The following applies: tested as the 3H-labelled form.

Activity calls are given as the source filed them. The rule behind the calls is not given here.

Sequence of Adenosine receptor A2a (Homo sapiens) (P29274 whole entry): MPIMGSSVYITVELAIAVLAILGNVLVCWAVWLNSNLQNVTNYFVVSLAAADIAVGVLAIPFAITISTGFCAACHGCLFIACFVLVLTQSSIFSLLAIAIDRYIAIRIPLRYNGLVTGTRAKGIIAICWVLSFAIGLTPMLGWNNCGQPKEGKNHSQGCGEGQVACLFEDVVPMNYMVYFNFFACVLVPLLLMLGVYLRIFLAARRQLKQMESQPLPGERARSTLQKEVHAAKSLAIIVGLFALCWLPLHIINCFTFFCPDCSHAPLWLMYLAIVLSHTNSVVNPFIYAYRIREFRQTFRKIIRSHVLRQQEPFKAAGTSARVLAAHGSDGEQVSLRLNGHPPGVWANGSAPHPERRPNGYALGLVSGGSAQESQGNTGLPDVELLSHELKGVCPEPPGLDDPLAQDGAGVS

For the compound `Nc1sc2c(c1C(=O)c1ccc(Cl)cc1)CCCC2`, the Activity in experiment [1] came out at 55%; in [2] it was 51%; in experiment [3], 15%; in experiment [4], 22%; in experiment [5], 65%; in [6], 15%. In [7], this compound came in with an Activity of 23%. Also, the outcome in experiment [8] and in [9] was inactive. The Bmax in [10] was 76.5 pmol/mg.
